Reference: US9045491B2, “Thienyl [3,2-D] pyrimidin-4-one compounds, preparation method, pharmaceutical compositions and use thereof” (SHANGHAI INSTITUTE OF MATERIA MEDICA, CHINESE ACADEMY OF …, priority 2011, dated 2015)
“And” between values parts separate entries of the source, which are not always exact repeats. Identical values can stand only once.

Assay: Pharmacokinetics of DC291407 and metabolites in rats (LC-MS/MS)
Assay type: in vivo, Sprague-Dawley (SD) rats
Procedure: The concentration of metabolite M1 (4071001), metabolite M2 (407002) or metabolite M3 (407003) in plasma was determined by LC-MS/MS method after DC291407 was administrated to the rats through gavage and intravenous injection.
The LC/MS/MS used is triple quadruple LC/MS 6460 from Agilent.
Six healthy male Sprague-Dawley (SD) rats with the weight of 180-220 g were randomly divided into 2 groups. The rats in each group were administrated with the tested compound by gavage or intravenous injection, respectively.
The compound was dissolved in 6.7% DMSO/6.7% Tween/86.6% normal saline.
The rats fasted for 12 h and can drink water ad libitum. 2 h after dosing, the rats were provided with food all together. The time point for collecting blood samples and the sample processing are listed as follows.
Intragastric administration: 0.25, 0.5, 1.0, 2.0, 3.0, 4.0, 6.0, 8.0 and 24 h after administration;
Intravenous administration: 5 min, 0.25, 0.5, 1.0, 2.0, 4.0, 6.0, 8.0 and 24 h after administration. At above time point, 0.3 ml venous blood was taken from retrobulbar venous plexus of the rat and loaded into heparinization tube. After centrifuged at 11000 rpm for 5 min, the plasma was separated and frozen at −20° C. in a refrigerator.

[1] = intravenous injection 10 mg/kg DC291407, average of 3 animals
[2] = intravenous injection 10 mg/kg DC291407, individual animals, 10 mg/kg
[3] = intravenous injection 10 mg/kg DC291407, time 0.083 h, average of 3 animals
[4] = intravenous injection 10 mg/kg DC291407, time 0.083 h, individual animals, 10 mg/kg
[5] = intravenous injection 10 mg/kg DC291407, time 0.25 h, average of 3 animals
[6] = intravenous injection 10 mg/kg DC291407, time 0.25 h, individual animals, 10 mg/kg
[7] = intravenous injection 10 mg/kg DC291407, time 0.50 h, average of 3 animals
[8] = intravenous injection 10 mg/kg DC291407, time 0.50 h, individual animals, 10 mg/kg
[9] = intravenous injection 10 mg/kg DC291407, time 1.0 h, average of 3 animals
[10] = intravenous injection 10 mg/kg DC291407, time 1.0 h, individual animals, 10 mg/kg
[11] = intravenous injection 10 mg/kg DC291407, time 2.0 h, average of 3 animals
[12] = intravenous injection 10 mg/kg DC291407, time 2.0 h, individual animals, 10 mg/kg
[13] = intravenous injection 10 mg/kg DC291407, time 4.0 h, individual animals, BLQ = below lower quantification
[14] = intravenous injection 10 mg/kg DC291407, time 6.0 h, individual animals, BLQ = below lower quantification
[15] = intravenous injection 10 mg/kg DC291407, time 8.0 h, individual animals, BLQ = below lower quantification
[16] = intravenous injection 10 mg/kg DC291407, time 24 h, individual animals, BLQ = below lower quantification

COC(=O)c1cc2nc(N3CCCC(N)C3)n(Cc3ccccc3C#N)c(=O)c2s1 (stereo not drawn) [DC291407]
Vss of prototype drug [1]: 210 L/kg | t1/2 of metabolite M1 [1]: 12.3 h | t1/2 of prototype drug [1]: 40.8 min | Tmax of metabolite M1 (intravenous injection 10 mg/kg DC291407, individual animals): 4.98 min | AUC0-t of metabolite M1 [2]: 22692 ng·h/mL and 20658 ng·h/mL and 23472 ng·h/mL | AUC0-t of prototype drug [2]: 42.4 ng·h/mL and 40.9 ng·h/mL and 24.8 ng·h/mL | AUC0-∞ of metabolite M1 [2]: 23114 ng·h/mL and 20834 ng·h/mL and 23603 ng·h/mL | AUC0-∞ of prototype drug [2]: 45.9 ng·h/mL and 43.9 ng·h/mL and 29.8 ng·h/mL | CL of prototype drug [2]: 218 L/h/kg and 228 L/h/kg and 335 L/h/kg | Cmax of metabolite M1 [2]: 39818 ng/mL and 41730 ng/mL and 53535 ng/mL | MRT of metabolite M1 [2]: 1.60 h and 1.01 h and 0.79 h | MRT of prototype drug [2]: 40.8 min and 40.2 min and 58.8 min | Vss of prototype drug [2]: 148 L/kg and 154 L/kg and 328 L/kg | t1/2 of metabolite M1 [2]: 19.2 h and 9.18 h and 8.40 h | t1/2 of prototype drug [2]: 30.6 min and 31.8 min and 60.6 min | Plasma concentration of metabolite M1 [3]: 45028 ng/mL | Plasma concentration of metabolite M2 [3]: 117 ng/mL | Plasma concentration of prototype compound [3]: 59.2 ng/mL | Plasma concentration of metabolite M1 [4]: 39818 ng/mL and 41730 ng/mL and 53535 ng/mL | Plasma concentration of metabolite M2 [4]: 126 ng/mL and 209 ng/mL and 15.0 ng/mL | Plasma concentration of prototype compound [4]: 63.4 ng/mL and 60.7 ng/mL and 53.4 ng/mL | Plasma concentration of metabolite M1 [5]: 29232 ng/mL | Plasma concentration of metabolite M2 [5]: 339 ng/mL | Plasma concentration of prototype compound [5]: 34.8 ng/mL | Plasma concentration of metabolite M1 [6]: 28858 ng/mL and 29247 ng/mL and 29592 ng/mL | Plasma concentration of metabolite M2 [6]: 866 ng/mL and 132 ng/mL and 20.3 ng/mL | Plasma concentration of prototype compound [6]: 49.7 ng/mL and 34.4 ng/mL and 20.3 ng/mL | Plasma concentration of metabolite M1 [7]: 9487 ng/mL | Plasma concentration of metabolite M2 [7]: 102 ng/mL | Plasma concentration of prototype compound [7]: 23.0 ng/mL | Plasma concentration of metabolite M1 [8]: 11784 ng/mL and 7251 ng/mL and 9426 ng/mL | Plasma concentration of metabolite M2 [8]: 144 ng/mL and 153 ng/mL and 9.39 ng/mL | Plasma concentration of prototype compound [8]: 27.4 ng/mL and 31.7 ng/mL and 9.72 ng/mL | Plasma concentration of metabolite M1 [9]: 4717 ng/mL | Plasma concentration of metabolite M2 [9]: 23.4 ng/mL | Plasma concentration of prototype compound [9]: 9.9 ng/mL | Plasma concentration of metabolite M1 [10]: 5628 ng/mL and 4634 ng/mL and 3891 ng/mL | Plasma concentration of metabolite M2 [10]: 36.0 ng/mL and 30.9 ng/mL and 3.26 ng/mL | Plasma concentration of prototype compound [10]: 11.3 ng/mL and 11.9 ng/mL and 6.61 ng/mL | Plasma concentration of metabolite M1 [11]: 310 ng/mL | Plasma concentration of prototype compound [11]: 4.05 ng/mL | Plasma concentration of metabolite M1 [12]: 401 ng/mL and 214 ng/mL and 314.7 ng/mL | Plasma concentration of prototype compound [12]: 4.75 ng/mL and 3.94 ng/mL and 3.44 ng/mL | Plasma concentration of metabolite M2 (intravenous injection 10 mg/kg DC291407, time 2.0 h, individual animals, BLQ = below lower quantification, 10 mg/kg): BLQ (2×) and 7.18 ng/mL | Plasma concentration of metabolite M1 (intravenous injection 10 mg/kg DC291407, time 4.0 h, average of 3 animals): 69.7 ng/mL | Plasma concentration of metabolite M1 (intravenous injection 10 mg/kg DC291407, time 4.0 h, individual animals, 10 mg/kg): 55.4 ng/mL and 68.1 ng/mL and 85.5 ng/mL | Plasma concentration of metabolite M2 [13]: BLQ | Plasma concentration of prototype compound [13]: BLQ | Plasma concentration of metabolite M1 (intravenous injection 10 mg/kg DC291407, time 6.0 h, average of 3 animals): 40.5 ng/mL | Plasma concentration of metabolite M1 (intravenous injection 10 mg/kg DC291407, time 6.0 h, individual animals, 10 mg/kg): 30.9 ng/mL and 41.4 ng/mL and 49.3 ng/mL | Plasma concentration of metabolite M2 [14]: BLQ | Plasma concentration of prototype compound [14]: BLQ | Plasma concentration of metabolite M1 (intravenous injection 10 mg/kg DC291407, time 8.0 h, average of 3 animals): 37.3 ng/mL | Plasma concentration of metabolite M1 (intravenous injection 10 mg/kg DC291407, time 8.0 h, individual animals, 10 mg/kg): 24.8 ng/mL and 48.5 ng/mL and 38.5 ng/mL | Plasma concentration of metabolite M2 [15]: BLQ | Plasma concentration of prototype compound [15]: BLQ | Plasma concentration of metabolite M1 (intravenous injection 10 mg/kg DC291407, time 24 h, average of 3 animals): 13.1 ng/mL | Plasma concentration of metabolite M1 (intravenous injection 10 mg/kg DC291407, time 24 h, individual animals, 10 mg/kg): 15.2 ng/mL and 13.3 ng/mL and 10.8 ng/mL | Plasma concentration of metabolite M2 [16]: BLQ | Plasma concentration of prototype compound [16]: BLQ
